Broadly, the IC50 is the concentration that gives 50% inhibition. The low end stands for greater potency in that assay, the high end for weaker potency in that assay.

Each structure is given as a SMILES string.

Consider 26 compounds from ChEMBL document CHEMBL1137125, “Rhodanine-3-acetic acid derivatives as inhibitors of fungal protein mannosyl transferase 1 (PMT1)” (Bioorg Med Chem Lett, 2004).

The first assay concerns Candida albicans. Description: In vitro inhibition of Candida albicans G418-sensitive proliferation. It counts as functional, organism-based.
`O=C(O)CN1C(=O)/C(=C/c2ccc(OCc3ccccc3)c(OCc3cccc(Cl)c3)c2)SC1=S` showed a concentration for half-maximal inhibition (IC50) of 4 µM.

For `CCCN(CCC)C(=O)C(Oc1cc(/C=C2\SC(=S)N(CC(=O)O)C2=O)ccc1OCCc1ccccc1)c1ccccc1` (centres undefined), the IC50 stood at 0.05 µM. Compared with the last compound, the IC50 is about 80-fold lower.

As to `C[C@H](COc1ccc(/C=C2\SC(=S)N(CC(=O)O)C2=O)cc1OCc1ccccc1)c1ccccc1`, the IC50 is 0.35 µM.

In turn, `O=C(O)CN1C(=O)/C(=C/c2ccc(OCc3ccccc3)c(OCc3cccc(C(F)(F)F)c3)c2)SC1=S` registered an IC50 greater than 100 µM.

The compound `O=C(O)CN1C(=O)/C(=C/c2ccc(OCCc3ccc(C(F)(F)F)cc3)c(OCc3ccccc3)c2)SC1=S` displayed a half-maximal inhibitory concentration (IC50) of 0.18 µM.

In turn, `O=C(O)CN1C(=O)/C(=C/c2ccc(OCCc3ccccc3)c(OC(CO)c3ccccc3)c2)SC1=S` (centres undefined) displayed an IC50 of 0.3 µM.

For `O=C(O)CN1C(=O)/C(=C/c2ccc(OCc3ccccc3)c(OCc3ccncc3)c2)SC1=S`, the half-maximal inhibitory concentration (IC50) is greater than 100 µM.

In turn, `O=C(O)CN1C(=O)/C(=C/c2ccc(OCc3cccc(C(F)(F)F)c3)c(OCc3ccccc3)c2)SC1=S` came in with a half-inhibitory concentration (IC50) of 0.65 µM.

In turn, `NC(=O)C(Oc1cc(/C=C2\SC(=S)N(CC(=O)O)C2=O)ccc1OCCc1ccccc1)c1ccccc1` (centres undefined) showed a 50% inhibitory concentration (IC50) of 7 µM.

On to `O=C(O)CN1C(=O)/C(=C/c2ccc(OCc3ccc(Cl)cc3)c(OCc3ccccc3)c2)SC1=S`, for which the half-maximal inhibitory concentration (IC50) was 0.6 µM.

`O=C(O)CN1C(=O)/C(=C/c2ccc(OCCc3ccc(F)cc3)c(OCc3ccccc3)c2)SC1=S` came in with an IC50 of 0.05 µM.

Compound `C[C@@H](COc1ccc(/C=C2\SC(=S)N(CC(=O)O)C2=O)cc1O[C@H](c1ccccc1)C(F)(F)F)c1ccccc1` showed an IC50 of 0.01 µM.

As to `C[C@@H](COc1ccc(/C=C2\SC(=S)N(CC(=O)O)C2=O)cc1O[C@@H](c1ccccc1)C(F)(F)F)c1ccccc1`, half-maximal inhibition (IC50) required 0.2 µM.

In turn, `COc1cccc(COc2cc(/C=C3\SC(=S)N(CC(=O)O)C3=O)ccc2OCc2ccccc2)c1` showed an IC50 greater than 100 µM.

`C[C@@H](COc1ccc(/C=C2\SC(=S)N(CC(=O)O)C2=O)cc1OCc1ccccc1)c1ccccc1`: half-maximal inhibition (IC50) required 0.07 µM.

`CC[C@@H](COc1ccc(/C=C2\SC(=S)N(CC(=O)O)C2=O)cc1O[C@H](c1ccccc1)C(F)(F)F)c1ccccc1` gave a 50% inhibitory concentration (IC50) of 0.02 µM. This IC50 lies about 3.5-fold lower than the previous one.

As for `O=C(O)CN1C(=O)/C(=C/c2ccc(OCc3ccccc3)cc2)SC1=S`, the IC50 turned out to be 50 µM. Compared with the last compound, the IC50 is about 2500-fold higher.

Regarding `O=C(O)CN1C(=O)/C(=C/c2ccc(OCCc3ccc(Cl)cc3)c(OCc3ccccc3)c2)SC1=S`, the IC50 amounted to 0.05 µM.

`O=C(O)CN1C(=O)/C(=C/c2ccc(OCc3ccc(F)cc3F)c(OCc3ccc(F)cc3F)c2)SC1=S` returned a half-maximal inhibitory concentration (IC50) greater than 100 µM.

In the case of `CCC(Oc1cc(/C=C2\SC(=S)N(CC(=O)O)C2=O)ccc1OCCc1ccccc1)c1ccccc1` (centres undefined), the midpoint of inhibition, the IC50, lay at 0.02 µM.

Compound `C[C@H](COc1ccc(/C=C2\SC(=S)N(CC(=O)O)C2=O)cc1O[C@H](c1ccccc1)C(F)(F)F)c1ccccc1` returned a half-maximal inhibitory concentration (IC50) of 0.02 µM.

As for `O=C(O)CN1C(=O)/C(=C/c2ccc(OCc3ccccc3)c(OCc3ccc(F)cc3F)c2)SC1=S`, the midpoint of inhibition, the IC50, lay at 6 µM.

With `O=C(O)CN1C(=O)/C(=C/c2ccc(OCc3ccccc3)c(OCc3ccccc3)c2)SC1=S`, the IC50 turned out to be 3 µM.

With `COc1ccc(COc2ccc(/C=C3\SC(=S)N(CC(=O)O)C3=O)cc2OCc2ccccc2)cc1`, the half-maximal inhibitory concentration (IC50) came out at 3 µM.

For another assay, the target named is T1, Dolichyl-phosphate-mannose--protein mannosyltransferase 1 (Candida albicans (strain SC5314 / ATCC MYA-2876) (Yeast), UniProt O74189).
T1 sequence (O74189 whole entry): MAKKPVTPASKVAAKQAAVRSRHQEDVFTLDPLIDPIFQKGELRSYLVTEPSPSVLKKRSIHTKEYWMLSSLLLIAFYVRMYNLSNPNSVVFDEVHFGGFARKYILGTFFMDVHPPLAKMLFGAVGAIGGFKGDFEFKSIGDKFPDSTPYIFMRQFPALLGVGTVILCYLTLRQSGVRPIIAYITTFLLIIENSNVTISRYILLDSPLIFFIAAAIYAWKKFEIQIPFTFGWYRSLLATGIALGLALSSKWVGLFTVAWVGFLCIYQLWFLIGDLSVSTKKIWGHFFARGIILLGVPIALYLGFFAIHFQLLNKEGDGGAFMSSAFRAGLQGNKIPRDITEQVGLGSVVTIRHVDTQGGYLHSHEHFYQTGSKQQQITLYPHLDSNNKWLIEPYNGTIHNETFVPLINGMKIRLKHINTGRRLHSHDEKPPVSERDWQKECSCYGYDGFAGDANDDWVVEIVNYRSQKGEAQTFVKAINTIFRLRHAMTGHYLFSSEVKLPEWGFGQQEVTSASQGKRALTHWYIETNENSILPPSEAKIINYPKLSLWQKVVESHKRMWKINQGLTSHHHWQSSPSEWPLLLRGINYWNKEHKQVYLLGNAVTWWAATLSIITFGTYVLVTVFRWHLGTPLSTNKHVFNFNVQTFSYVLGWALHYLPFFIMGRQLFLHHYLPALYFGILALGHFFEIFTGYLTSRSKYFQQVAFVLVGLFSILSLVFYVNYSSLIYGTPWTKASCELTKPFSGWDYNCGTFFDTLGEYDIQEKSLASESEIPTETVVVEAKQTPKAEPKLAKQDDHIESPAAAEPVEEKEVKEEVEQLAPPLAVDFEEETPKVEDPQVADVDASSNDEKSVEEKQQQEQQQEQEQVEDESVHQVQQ
In words: In vitro inhibition of Candida albicans protein mannosyl transferase 1.
On to `O=C(O)CN1C(=O)/C(=C/c2ccc(OCc3ccccc3)c(OCc3ccc(Cl)cc3)c2)SC1=S`, for which the IC50 stood at 7 µM.

`O=C(O)CN1C(=O)/C(=C/c2cccc(OCc3ccccc3)c2)SC1=S` displayed an IC50 of 50 µM.

`O=C(O)CN1C(=O)/C(=C/c2ccc(OCc3ccccc3)c(OCc3cccc(Cl)c3)c2)SC1=S`: it took 4 µM to reach half-maximal inhibition (IC50).

`CCCN(CCC)C(=O)C(Oc1cc(/C=C2\SC(=S)N(CC(=O)O)C2=O)ccc1OCCc1ccccc1)c1ccccc1` (centres undefined) displayed a concentration for half-maximal inhibition (IC50) of 0.8 µM.

In the case of `C[C@H](COc1ccc(/C=C2\SC(=S)N(CC(=O)O)C2=O)cc1OCc1ccccc1)c1ccccc1`, the half-inhibitory concentration (IC50) was found to be 9.5 µM.

In turn, `O=C(O)CN1C(=O)/C(=C/c2ccc(OCc3ccccc3)c(OCc3cccc(C(F)(F)F)c3)c2)SC1=S` had a half-inhibitory concentration (IC50) of 11 µM. This IC50 and that of the compound before are within 1.5-fold of each other.

`O=C(O)CN1C(=O)/C(=C/c2ccc(OCCc3ccc(C(F)(F)F)cc3)c(OCc3ccccc3)c2)SC1=S` gave an IC50 of 4 µM.

The compound `O=C(O)CN1C(=O)/C(=C/c2ccc(OCCc3ccccc3)c(OC(CO)c3ccccc3)c2)SC1=S` (centres undefined) gave an IC50 of 0.17 µM. This IC50 lies about 24-fold lower than the previous one.

In the case of `O=C(O)CN1C(=O)/C(=C/c2ccc(OCc3ccccc3)c(OCc3ccncc3)c2)SC1=S`, the IC50 came out at 30 µM.

In the case of `NC(=O)C(Oc1cc(/C=C2\SC(=S)N(CC(=O)O)C2=O)ccc1OCCc1ccccc1)c1ccccc1` (centres undefined), the concentration for half-maximal inhibition (IC50) amounted to 0.35 µM.

With `O=C(O)CN1C(=O)/C(=C/c2ccc(OCc3ccc(Cl)cc3)c(OCc3ccccc3)c2)SC1=S`, the IC50 was found to be 0.95 µM. This IC50 lies about 2.7-fold higher than the previous one.

Take `O=C(O)CN1C(=O)/C(=C/c2ccc(OCCc3ccc(F)cc3)c(OCc3ccccc3)c2)SC1=S`: inhibition was half-maximal at 1.2 µM (IC50).

With `C[C@@H](COc1ccc(/C=C2\SC(=S)N(CC(=O)O)C2=O)cc1O[C@H](c1ccccc1)C(F)(F)F)c1ccccc1`, the IC50 amounted to 0.4 µM. Compared with the last compound, the IC50 is about 3-fold lower.

`C[C@@H](COc1ccc(/C=C2\SC(=S)N(CC(=O)O)C2=O)cc1O[C@@H](c1ccccc1)C(F)(F)F)c1ccccc1` came in with an IC50 of 1.8 µM.

`COc1cccc(COc2cc(/C=C3\SC(=S)N(CC(=O)O)C3=O)ccc2OCc2ccccc2)c1` showed a half-inhibitory concentration (IC50) of 7.5 µM.

As for `C[C@@H](COc1ccc(/C=C2\SC(=S)N(CC(=O)O)C2=O)cc1OCc1ccccc1)c1ccccc1`, it took 1.8 µM to reach half-maximal inhibition (IC50).

`CC[C@@H](COc1ccc(/C=C2\SC(=S)N(CC(=O)O)C2=O)cc1O[C@H](c1ccccc1)C(F)(F)F)c1ccccc1` came in with a half-maximal inhibitory concentration (IC50) of 0.35 µM. This IC50 lies about 5.1-fold lower than the previous one.

For `O=C(O)CN1C(=O)/C(=C/c2ccc(OCc3ccccc3)cc2)SC1=S`, half-maximal inhibition (IC50) required 55 µM.

Turning to `O=C(O)CN1C(=O)/C(=C/c2ccc(OCCc3ccc(Cl)cc3)c(OCc3ccccc3)c2)SC1=S`, half-maximal inhibition (IC50) was put at 1.6 µM.

Compound `O=C(O)CN1C(=O)/C(=C/c2ccc(OCc3ccc(F)cc3F)c(OCc3ccc(F)cc3F)c2)SC1=S` returned an IC50 of 5 µM.

Turning to `CCC(Oc1cc(/C=C2\SC(=S)N(CC(=O)O)C2=O)ccc1OCCc1ccccc1)c1ccccc1` (centres undefined), the half-maximal inhibitory concentration (IC50) came to 0.95 µM. Against the preceding compound, the IC50 is about 5.3-fold lower.

For the compound `C[C@H](COc1ccc(/C=C2\SC(=S)N(CC(=O)O)C2=O)cc1O[C@H](c1ccccc1)C(F)(F)F)c1ccccc1`, the concentration for half-maximal inhibition (IC50) came out at 0.6 µM.

With `O=C(O)CN1C(=O)/C(=C/c2ccc(OCc3ccccc3)c(OCc3ccc(F)cc3F)c2)SC1=S`, half-maximal inhibition (IC50) required 8.5 µM.

The compound `O=C(O)CN1C(=O)/C(=C/c2ccc(OCc3ccccc3)c(OCc3ccccc3)c2)SC1=S` showed an IC50 of 2.3 µM.

For the compound `COc1ccc(COc2ccc(/C=C3\SC(=S)N(CC(=O)O)C3=O)cc2OCc2ccccc2)cc1`, the half-inhibitory concentration (IC50) was found to be 3.4 µM.
